Results: US7202280B2, “Methods for the treatment and prevention of pancreatitis and for induction of liver regeneration” (priority 2002, dated 2007)
Where “and” joins values, the source holds several entries; their conditions need not be identical. Equal values may be shown once. Marks after values point to notes of the source that are not given here.

Key:
[1] = test system: syngenic and transgenic rats; experiment: Hepatic SSAT activity and polyamine pools after partial hepatectomy; assay type: in vivo, rat; details: for Me-Spd (liver) / Put (liver) / Spd (liver) / Spm (liver): 24 h regenerating liver
Text: FIGS. 4a–4d. Hepatic polyamine pools in syngenic and transgenic rats after partial hepatectomy and methylspermidine. […] Three to five animals in each group. Me-spd, methylspermidine.
The production of transgenic Wistar rats (UKUR30) and mice (UKU181) harboring metallothionein-SSAT fusion gene (Suppola, S., Pietilä, M., Parkkinen, J. J., Korhonen, V. P., Alhonen, L., Halmekytö, M., Porter, C. W., and Jänne, J. (1999) Biochem. J. 338, 311–316) has been described earlier (Alhonen, L., Parkkinen, J. J., Keinänen, T., Sinervirta, R., Herzig, K. H., and Jänne, J. (2000) Proc. Natl. Acad. Sci. U.S.A. 97, 8290–8295; Lukkarinen, J., Gröhn, O., Sinervirta, R., Järvinen, A., Kauppinen, R. A., Jänne, J., and Alhonen, L. (1997) Stroke 28, 639–645). Partial hepatectomy was carried out according to the original method of Higgins and Anderson (Higgins, G. H., and Anderson, R. M. (1931) Arch. Pathol. 12, 186–202). Treatments before partial hepatectomy and the determination of DNA synthesis were carried out as in (Räsänen, T. L., Alhonen, L., Sinervirta, R., Keinänen, T., Herzig, K. H., Suppola, S., Khomutov, A. R., Vepsäläinen, J., and Jänne, J. (2002) J. Biol. Chem. 277, 39867–39872). […] The animals were sacrificed 24 h after the second MDL72527 injection and liver pieces were frozen in liquid nitrogen, homogenized in buffer (25 mM Tris-HCl pH 7.4, 0.1 mM EDTA, 1 mM DTT). An aliquot of the homogenates was used for the polyamine assays. The homogenates were centrifuged (at 13 000×g, for 30 min, at 4° C.) and the supernatants were used for the enzyme activity assays. The Institutional Animal Care and Use Committee of the University of Kuopio and by the Provincial Government approved animal experiments.
FIG. 4 depicts polyamine concentrations in syngenic and transgenic rats at 24 h after partial hepatectomy. […] This in all likelihood reflected the enhanced SSAT activity. […] In transgenic animals, the low spermidine pool was further decreased in response to the operation (FIG. 4c).
Liver regeneration could be restored by a prior administration of α-methylspermidine (Räsänen, T. L., Alhonen, L., Sinervirta, R., Keinänen, T., Herzig, K. H., Suppola, S., Khomutov, A. R., Vepsäläinen, J., and Jänne, J. (2002) J. Biol. Chem. 277, 39867–39872). FIG. 10. depicts thymidine incorporation in livers of transgenic rats before and 24 h after partial hepatectomy. […] Table 3 lists the liver pools of polyamines and their analogues before and after partial hepatectomy. […] The analogues were readily accumulated in the livers.

[2] = test system: SSAT transgenic rats (UKUR30); experiment: Pancreatic zinc, SSAT activity and polyamine levels in zinc induced pancreatitis treated with MeSpd; assay type: in vivo; details: single animals
Description: Transgenic UKUR30 female rats (weighting about 200 g) were used for the experiments. Pancreatitis was initiated with zinc 10 mg/kg treatment. Experiments were separated in five different parts (Exp. 1–5). Animals treated with α-MeSPD received 50 mg/kg i.p at the indicated time point(s). The pooled data from all of the experiment is shown in tables 4 A/B/C/D. First histological signs of pancreatic failure were evident within 6 h after the zinc. Pancreatic failure steadily increases until 24 hours when the first animals died. Within 48 hours mortality was almost 70% in control zinc treated rats. […].
Tables 4 A/B/C/D present the natural course of zinc induced pancreatitis. Histological scoring along with plasma amylase activity is shown as a measure of severity of pancreatitis. Tissue zinc and polyamine levels and SSAT activity were determined to verify the response of each animal to the treatment. No other data than the number of death animals is shown from deceased animals. Transgenic UKUR30 female rats weighting about 200 grams were used for the experiment. Zinc was injected i.p. 10 mg/kg to initiate acute pancreatitis. Animals treated with MeSpd received one 50 mg/kg dosage i.p. at the indicated time point(s). At indicated time points live animals were sacrificed and pancreas was subjected to further analysis. […] Values for polyamines are expressed as pmoles/mg/wet weight. SSAT pmoles/10 min/mg wet weight.

[3] = transgenic rats, 5 mg/kg 20 and 4 h before operation
[4] = transgenic rats, 25 mg/kg 20 and 4 h before operation
[5] = Zn 24 h, MeSpd 50 mg/kg i.p. at 3 h/8 h
[6] = Zn 24 h, MeSpd 50 mg/kg i.p. at 6 h/12 h
[7] = Zn 24 h, MeSpd 50 mg/kg i.p. at 12 h
[8] = Zn 48 h, MeSpd 50 mg/kg i.p. at 3 h/8 h
[9] = Zn 48 h, MeSpd 50 mg/kg i.p. at 4 h/24 h
[10] = Zn 48 h, MeSpd 50 mg/kg i.p. at 12 h/24 h

CC(N)CCNCCCCN (stereo not drawn) [α-methylspermidine, 1-methylspermidine]
hepatic spermidine and spermine concentrations ([1]; 24 h after partial hepatectomy, 50 mg/kg 3 h before): little effect on hepatic spermidine and spermine concentrations | accumulation of the analogue in liver ([1]; normal and transgenic rats, 50 mg/kg 3 h before partial hepatectomy): effectively accumulated in normal and transgenic liver | hepatic putrescine pool ([1]; transgenic rats, 24 h after partial hepatectomy, 50 mg/kg 3 h before): strikingly increased in response to the analogue | Me-Spd (liver) [1, 3]: 462 ± 41 pmoles/mg tissue wet weight | Put (liver) [1, 3]: 4540 ± 690^a pmoles/mg tissue wet weight | Spd (liver) [1, 3]: 183 ± 47^a pmoles/mg tissue wet weight | Spm (liver) [1, 3]: 18 ± 5^a pmoles/mg tissue wet weight | Me-Spd (liver) [1, 4]: 864 ± 166 pmoles/mg tissue wet weight | Put (liver) [1, 4]: 3570 ± 596^a pmoles/mg tissue wet weight | Spd (liver) [1, 4]: 281 ± 107^a pmoles/mg tissue wet weight | Spm (liver) [1, 4]: 40 ± 24^a pmoles/mg tissue wet weight | hepatic SSAT activity ([1]; transgenic rats, single dose 3 h prior to partial hepatectomy, 24 h postoperatively): 7520±3000 pmol/mg/10 min | MeSpd (pancreas) [2, 5]: 1943 pmoles/mg/wet weight and 1425 pmoles/mg/wet weight and 907 pmoles/mg/wet weight and 0 pmoles/mg/wet weight | N^1AcSpd (pancreas) [2, 5]: 54 pmoles/mg/wet weight and 58 pmoles/mg/wet weight and 31 pmoles/mg/wet weight and 0 pmoles/mg/wet weight | PU (pancreas) [2, 5]: 3231 pmoles/mg/wet weight and 2820 pmoles/mg/wet weight and 2269 pmoles/mg/wet weight and 2159 pmoles/mg/wet weight | SPD (pancreas) [2, 5]: 1165 pmoles/mg/wet weight and 265 pmoles/mg/wet weight and 119 pmoles/mg/wet weight and 3405 pmoles/mg/wet weight | SPM (pancreas) [2, 5]: 299 pmoles/mg/wet weight and 128 pmoles/mg/wet weight and 69 pmoles/mg/wet weight and 441 pmoles/mg/wet weight | SSAT (pancreas) [2, 5]: 50 pmoles/10 min/mg wet weight and 91 pmoles/10 min/mg wet weight and 100 pmoles/10 min/mg wet weight and 18 pmoles/10 min/mg wet weight | MeSpd (pancreas) [2, 6]: 2268 pmoles/mg/wet weight and 3242 pmoles/mg/wet weight and 3098 pmoles/mg/wet weight and 745 pmoles/mg/wet weight and 798 pmoles/mg/wet weight and 954 pmoles/mg/wet weight and 834 pmoles/mg/wet weight and 1993 pmoles/mg/wet weight and 728 pmoles/mg/wet weight | N^1AcSpd (pancreas) [2, 6]: 113 pmoles/mg/wet weight and 45 pmoles/mg/wet weight and 43 pmoles/mg/wet weight and 66 pmoles/mg/wet weight and 71 pmoles/mg/wet weight and 98 pmoles/mg/wet weight and 134 pmoles/mg/wet weight and 20 pmoles/mg/wet weight and 59 pmoles/mg/wet weight | PU (pancreas) [2, 6]: 6768 pmoles/mg/wet weight and 6932 pmoles/mg/wet weight and 4915 pmoles/mg/wet weight and 2335 pmoles/mg/wet weight and 1932 pmoles/mg/wet weight and 2401 pmoles/mg/wet weight and 1911 pmoles/mg/wet weight and 3790 pmoles/mg/wet weight and 1935 pmoles/mg/wet weight | SPD (pancreas) [2, 6]: 478 pmoles/mg/wet weight and 1114 pmoles/mg/wet weight and 1297 pmoles/mg/wet weight and 108 pmoles/mg/wet weight and 96 pmoles/mg/wet weight and 105 pmoles/mg/wet weight and 84 pmoles/mg/wet weight and 1096 pmoles/mg/wet weight and 100 pmoles/mg/wet weight | SPM (pancreas) [2, 6]: 213 pmoles/mg/wet weight and 431 pmoles/mg/wet weight and 408 pmoles/mg/wet weight and 41 pmoles/mg/wet weight and 54 pmoles/mg/wet weight (2×) and 50 pmoles/mg/wet weight and 276 pmoles/mg/wet weight and 46 pmoles/mg/wet weight | SSAT (pancreas) [2, 6]: 1403 pmoles/10 min/mg wet weight and 37 pmoles/10 min/mg wet weight and 40 pmoles/10 min/mg wet weight and 10372 pmoles/10 min/mg wet weight and 3866 pmoles/10 min/mg wet weight and 5823 pmoles/10 min/mg wet weight and 6216 pmoles/10 min/mg wet weight and 1024 pmoles/10 min/mg wet weight and 5748 pmoles/10 min/mg wet weight | MeSpd (pancreas) [2, 7]: 1113 pmoles/mg/wet weight and 371 pmoles/mg/wet weight and 333 pmoles/mg/wet weight and 334 pmoles/mg/wet weight | N^1AcSpd (pancreas) [2, 7]: 16 pmoles/mg/wet weight and 57 pmoles/mg/wet weight and 65 pmoles/mg/wet weight and 42 pmoles/mg/wet weight | PU (pancreas) [2, 7]: 5328 pmoles/mg/wet weight and 3361 pmoles/mg/wet weight and 2782 pmoles/mg/wet weight and 3116 pmoles/mg/wet weight | SPD (pancreas) [2, 7]: 1360 pmoles/mg/wet weight and 124 pmoles/mg/wet weight and 153 pmoles/mg/wet weight and 126 pmoles/mg/wet weight | SPM (pancreas) [2, 7]: 479 pmoles/mg/wet weight and 47 pmoles/mg/wet weight and 61 pmoles/mg/wet weight and 45 pmoles/mg/wet weight | SSAT (pancreas) [2, 7]: 29 pmoles/10 min/mg wet weight and 6855 pmoles/10 min/mg wet weight and 4852 pmoles/10 min/mg wet weight and 6866 pmoles/10 min/mg wet weight | MeSpd (pancreas) [2, 8]: 646 pmoles/mg/wet weight and 1043 pmoles/mg/wet weight and 768 pmoles/mg/wet weight | N^1AcSpd (pancreas) [2, 8]: 43 pmoles/mg/wet weight and 21 pmoles/mg/wet weight and 29 pmoles/mg/wet weight | PU (pancreas) [2, 8]: 1538 pmoles/mg/wet weight and 1268 pmoles/mg/wet weight and 649 pmoles/mg/wet weight | SPD (pancreas) [2, 8]: 367 pmoles/mg/wet weight and 313 pmoles/mg/wet weight and 148 pmoles/mg/wet weight | SPM (pancreas) [2, 8]: 119 pmoles/mg/wet weight and 90 pmoles/mg/wet weight and 51 pmoles/mg/wet weight | SSAT (pancreas) [2, 8]: 92 pmoles/10 min/mg wet weight and 82 pmoles/10 min/mg wet weight and 90 pmoles/10 min/mg wet weight | MeSpd (pancreas) [2, 9]: 1066 pmoles/mg/wet weight and 2249 pmoles/mg/wet weight and 1415 pmoles/mg/wet weight and 1041 pmoles/mg/wet weight and 1493 pmoles/mg/wet weight | N^1AcSpd (pancreas) [2, 9]: 0 pmoles/mg/wet weight | PU (pancreas) [2, 9]: 1522 pmoles/mg/wet weight and 2416 pmoles/mg/wet weight and 1960 pmoles/mg/wet weight and 1744 pmoles/mg/wet weight and 1896 pmoles/mg/wet weight | SPD (pancreas) [2, 9]: 1344 pmoles/mg/wet weight and 1052 pmoles/mg/wet weight and 1928 pmoles/mg/wet weight and 2533 pmoles/mg/wet weight and 369 pmoles/mg/wet weight | SPM (pancreas) [2, 9]: 238 pmoles/mg/wet weight and 254 pmoles/mg/wet weight and 339 pmoles/mg/wet weight and 557 pmoles/mg/wet weight and 112 pmoles/mg/wet weight | SSAT (pancreas) [2, 9]: 10 pmoles/10 min/mg wet weight and 28 pmoles/10 min/mg wet weight and 17 pmoles/10 min/mg wet weight and 8 pmoles/10 min/mg wet weight and 75 pmoles/10 min/mg wet weight | MeSpd (pancreas) [2, 10]: 452 pmoles/mg/wet weight and 1053 pmoles/mg/wet weight and 560 pmoles/mg/wet weight and 629 pmoles/mg/wet weight | N^1AcSpd (pancreas) [2, 10]: 70 pmoles/mg/wet weight and 51 pmoles/mg/wet weight and 49 pmoles/mg/wet weight and 42 pmoles/mg/wet weight | PU (pancreas) [2, 10]: 889 pmoles/mg/wet weight and 7496 pmoles/mg/wet weight and 1078 pmoles/mg/wet weight and 1345 pmoles/mg/wet weight | SPD (pancreas) [2, 10]: 79 pmoles/mg/wet weight and 1571 pmoles/mg/wet weight and 165 pmoles/mg/wet weight and 456 pmoles/mg/wet weight | SPM (pancreas) [2, 10]: 35 pmoles/mg/wet weight and 422 pmoles/mg/wet weight and 61 pmoles/mg/wet weight and 141 pmoles/mg/wet weight | SSAT (pancreas) [2, 10]: 548 pmoles/10 min/mg wet weight and 42 pmoles/10 min/mg wet weight and 4391 pmoles/10 min/mg wet weight and 2001 pmoles/10 min/mg wet weight
